Experimental data published in patent US8604038B2, “Pyrrolidine derived beta 3 adrenergic receptor agonists” (Merck Sharp & Dohme Corp., priority 2009, dated 2013).

Biological target: T1, human β3 adrenergic receptor (Homo sapiens, UniProt P13945)
T1 construct: expressed in transfected cells; host or cells: CHO (Chinese hamster ovary) cells, stably transfected
Experiment: Beta-3 agonist in vitro functional assay (cAMP production, LANCE, transfected CHO cells)
Type: cell-based
Settings: Table 1, CHO cells with cloned β3 receptor, ligands titrated 10^-10 M to 10^-5 M, read-out: Human β3 agonist functional activity
Procedure: Functional Assay: For compounds in examples 1-50, cAMP production in response to ligand is measured according to Barton, et al. (1991, Agonist-induced desensitization of D2 dopamine receptors in human Y-79 retinoblastoma cells. Mol. Pharmacol. […]:650-658) modified as follows. The cAMP production is measured using a homogenous time-resolved fluorescence resonance energy transfer immunoassay (LANCE™, Perkin Elmer) according to the manufacture's instructions. Chinese hamster ovary (CHO) cells, stably transfected with the cloned β-adrenergic receptor (β1, β2 or β3) are harvested after 3 days of subculturing. Harvesting of cells is done with Enzyme-free Dissociation Media (Specialty Media). Cells are then counted and resuspended in assay buffer (Hank's Balanced salt solution supplemented with 5 mM HEPES, […]) containing a phosphodiesterase inhibitor (IBMX, 0.6 mM). The reaction is initiated by mixing 6,000 cells in 6 μL with 6 μL Alexa Fluor labeled cAMP antibody (LANCE™ kit) which is then added to an assay well containing 12 μL of compound (diluted in assay buffer to 2× final concentration). The reaction proceeds for 30 minutes at RT and is terminated by the addition of 24 ul detection buffer (LANCE™ kit). The assay plate is then incubated for 1 h at RT and time-resolved fluorescence measured on a Perkin Elmer Envision reader or equivalent. The unknown cAMP level is determined by comparing fluorescence levels to a cAMP standard curve.
The non-selective, full agonist β-adrenergic ligand isoproterenol is used at all three receptors to determine maximal stimulation. The human β3 adrenergic receptor (AR) selective ligand (S)-N-[4-[2-[[2-hydroxy-3-(4-hydroxyphenoxy)propyl]amino]ethyl]-phenyl]-4-iodobenzenesulfonamide is used as a control in all assays. […] The EC50 is defined as the concentration of compound that gives 50% activation of its own maximum. Data are analyzed using Microsoft Excel and Graphpad Prism or an internally developed data analysis software package.
The EC50 is defined as the concentration of compound that gives 50% activation of its own maximum. Functional antagonist assays are performed similar to described above; however, unknown ligands are titrated at β-adrenergic receptor subtypes 1 and 2 at a final concentration in the assay of 10^-12 M to 10^-5 M in the presence of 10^-9 M full agonist β-adrenergic ligand isoproterenol. The EC50 is defined as the concentration of compound that gives 50% inhibition of the full agonist response. Data are analyzed using Microsoft Excel and Graphpad Prism or an internally developed data analysis software package.

T1 sequence (P13945 whole entry): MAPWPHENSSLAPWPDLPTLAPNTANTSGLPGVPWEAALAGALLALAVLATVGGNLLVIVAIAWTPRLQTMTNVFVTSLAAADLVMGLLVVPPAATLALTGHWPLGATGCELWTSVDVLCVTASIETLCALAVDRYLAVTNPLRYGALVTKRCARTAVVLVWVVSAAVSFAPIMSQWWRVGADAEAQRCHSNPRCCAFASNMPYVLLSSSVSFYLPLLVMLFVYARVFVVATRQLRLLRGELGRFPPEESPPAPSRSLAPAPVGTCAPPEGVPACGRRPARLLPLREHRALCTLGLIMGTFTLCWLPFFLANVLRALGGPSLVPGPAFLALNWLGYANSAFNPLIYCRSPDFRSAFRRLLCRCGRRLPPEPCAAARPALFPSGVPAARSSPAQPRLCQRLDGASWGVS

| SMILES | EC50 [nM] |
| --- | --- |
| O=C(NCc1nccc(C2CC2)n1)c1ccc(C[C@@H]2CC[C@H]([C@H](O)c3ccccc3)N2)cc1 [Example 15] | 10 to 99.9 |
| O=C(NCc1ncccn1)c1ccc(C[C@@H]2CC[C@H]([C@H](O)c3ccccc3)N2)cc1 [Example 9] | 100 to 999 |
| O=C(NCc1ncc(-c2ccccc2)cn1)c1ccc(C[C@@H]2CC[C@H]([C@H](O)c3ccccc3)N2)cc1 [Example 24] | 10 to 99.9 |
| Cn1c(CNC(=O)c2ccc(C[C@@H]3CC[C@H]([C@H](O)c4cccnc4)N3)cc2)nc2ccccc21 [Example 36] | 10 to 99.9 |
| Cc1cc(C)nc(CNC(=O)c2ccc(C[C@@H]3CC[C@H]([C@H](O)c4ccccc4)N3)cc2)n1 [Example 3] | 10 to 99.9 |

Same assay, conditions: Table 2, CHO cells with cloned β3 receptor, ligands titrated 10^-10 M to 10^-5 M, read-out: Human β3 agonist functional activity

| SMILES | EC50 [nM] |
| --- | --- |
| Cc1cc(C)nc(CNC(=O)c2ccc(C[C@@H]3CC[C@H]([C@H](O)c4ccc(F)cc4)N3)cc2)n1 [Example 50] | 10 to 99.9 |

Same assay, conditions: Table 3, CHO cells with cloned β3 receptor, ligands titrated 10^-12 M to 10^-5 M, read-out: Human β3 agonist functional activity

| SMILES | EC50 [nM] |
| --- | --- |
| COc1ccccc1CN(C)C(=O)c1ccc(C[C@@H]2CC[C@H]([C@H](O)c3ccccc3)N2)cc1 [Example 65] | 10 to 99.9 |
| CN(Cc1nccs1)C(=O)c1ccc(C[C@@H]2CC[C@H]([C@H](O)c3ccccc3)N2)cc1 [Example 118] | 100 to 999 |
| CN(Cc1cscn1)C(=O)c1ccc(C[C@@H]2CC[C@H]([C@H](O)c3ccccc3)N2)cc1 [Example 108] | 100 to 999 |
| CN(Cc1cccnn1)C(=O)c1ccc(C[C@@H]2CC[C@H]([C@H](O)c3ccc(N)nc3)N2)cc1 [Example 56] | 10 to 99.9 |
| CN(Cc1ncn(C)n1)C(=O)c1ccc(C[C@@H]2CC[C@H]([C@H](O)c3ccccc3)N2)cc1 [Example 73] | 100 to 999 |
| CC(C)c1nc(CCN(C)C(=O)c2ccc(C[C@@H]3CC[C@H]([C@H](O)c4ccccc4)N3)cc2)no1 [Example 89] | 10 to 99.9 |
| CC(C)c1nccc(CN(C)C(=O)c2ccc(C[C@@H]3CC[C@H]([C@H](O)c4ccccc4)N3)cc2)n1 [Example 80] | 1 to 9.9 |
| CN(Cc1nc(-c2ccncc2)no1)C(=O)c1ccc(C[C@@H]2CC[C@H]([C@H](O)c3ccccc3)N2)cc1 [Example 103] | 100 to 999 |
| CC(C)c1noc(CN(C)C(=O)c2ccc(C[C@@H]3CC[C@H]([C@H](O)c4ccccc4)N3)cc2)n1 [Example 93] | 10 to 99.9 |
| Cc1cc2nc(CN(C)C(=O)c3ccc(C[C@@H]4CC[C@H]([C@H](O)c5ccccc5)N4)cc3)[nH]c2cc1C [Example 101] | 100 to 999 |
| CN(Cc1cccnc1Cl)C(=O)c1ccc(C[C@@H]2CC[C@H]([C@H](O)c3ccccc3)N2)cc1 [Example 124] | 10 to 99.9 |
| CN(C(=O)c1ccc(C[C@@H]2CC[C@H]([C@H](O)c3ccccc3)N2)cc1)C1CCOC1 (stereo partly drawn) [Example 117] | 100 to 999 |
| COCCCN(Cc1cccnn1)C(=O)c1ccc(C[C@@H]2CC[C@H]([C@H](O)c3ccccc3)N2)cc1 [Example 131] | 100 to 999 |
| Cc1csc(CN(C)C(=O)c2ccc(C[C@@H]3CC[C@H]([C@H](O)c4ccccc4)N3)cc2)n1 [Example 123] | 100 to 999 |

Tested on: rats
Experiment: not given
Settings: intravenous administration, cystometric studies; cited from earlier work

| SMILES | bladder capacity | micturition interval | residual urine volume |
| --- | --- | --- | --- |
| C[C@H](Cc1ccc2c(c1)OC(C(=O)[O-])(C(=O)[O-])O2)NC[C@H](O)c1cccc(Cl)c1.[Na+].[Na+] [CL316243] | increases bladder capacity | prolongation of micturition interval | without increasing residual urine volume |

Same assay, conditions: intravenous administration; cited from earlier work

| SMILES | bladder pressure |
| --- | --- |
| C[C@H](Cc1ccc2c(c1)OC(C(=O)[O-])(C(=O)[O-])O2)NC[C@H](O)c1cccc(Cl)c1.[Na+].[Na+] [CL316243] | reduces bladder pressure |
